Measurements published in patent US9682141B2, “Combination of kinase inhibitors and uses thereof” (INTELLIKINE LLC, priority 2011, dated 2017).

Assays:
Type in all cases: biochemical
PI3K α = PI3K α (Homo sapiens (Human), UniProt P42336); assay: PI 3-Kinase (human) HTRF assay, p110α/p85α
PI3K δ = PI3K δ (Homo sapiens (Human), UniProt O00329); assay: PI 3-Kinase (human) HTRF assay, p110δ/p85α
Procedure: (§1) An exemplary system is PI 3-Kinase (human) HTRF™ Assay from Upstate. […] Briefly, the assay is a time resolved FRET assay that indirectly measures PIP3 product formed by the activity of a PI3-K. The kinase reaction is performed in a microtitre plate (e.g., a 384 well microtitre plate). The total reaction volume is approximately 20 ul per well. In the first step, each well receives 2 ul of test compound in 20% dimethylsulphoxide resulting in a 2% DMSO final concentration. Next, approximately 14.5 ul of a kinase/PIP2 mixture (diluted in 1× reaction buffer) is added per well for a final concentration of 0.25-0.3 ug/ml kinase and 10 μM PIP2. The plate is sealed and incubated for 15 minutes at room temperature. To start the reaction, 3.5 ul of ATP (diluted in 1× reaction buffer) is added per well for a final concentration of 10 μM ATP. The plate is sealed and incubated for 1 hour at room temperature. The reaction is stopped by adding 5 ul of Stop Solution per well and then 5 ul of Detection Mix is added per well. The plate is sealed, incubated for 1 hour at room temperature, and then read on an appropriate plate reader. Data is analyzed and IC50s are generated using GraphPad Prism 5. For PI3K α, β, δ, and γ, the nM concentration of inhibitor to reach IC50 is provided.

PI3K γ = PI3K γ (Homo sapiens (Human), UniProt P48736); assay: PI 3-Kinase (human) HTRF assay, p110γ; conditions: read-out: PI3K γ IC50
Procedure: as §1

PI3K β = PI3K β (Homo sapiens (Human), UniProt P42338); assay: PI 3-Kinase (human) HTRF assay, p110β/p85α
Chain of PI3K β (P42338 whole entry): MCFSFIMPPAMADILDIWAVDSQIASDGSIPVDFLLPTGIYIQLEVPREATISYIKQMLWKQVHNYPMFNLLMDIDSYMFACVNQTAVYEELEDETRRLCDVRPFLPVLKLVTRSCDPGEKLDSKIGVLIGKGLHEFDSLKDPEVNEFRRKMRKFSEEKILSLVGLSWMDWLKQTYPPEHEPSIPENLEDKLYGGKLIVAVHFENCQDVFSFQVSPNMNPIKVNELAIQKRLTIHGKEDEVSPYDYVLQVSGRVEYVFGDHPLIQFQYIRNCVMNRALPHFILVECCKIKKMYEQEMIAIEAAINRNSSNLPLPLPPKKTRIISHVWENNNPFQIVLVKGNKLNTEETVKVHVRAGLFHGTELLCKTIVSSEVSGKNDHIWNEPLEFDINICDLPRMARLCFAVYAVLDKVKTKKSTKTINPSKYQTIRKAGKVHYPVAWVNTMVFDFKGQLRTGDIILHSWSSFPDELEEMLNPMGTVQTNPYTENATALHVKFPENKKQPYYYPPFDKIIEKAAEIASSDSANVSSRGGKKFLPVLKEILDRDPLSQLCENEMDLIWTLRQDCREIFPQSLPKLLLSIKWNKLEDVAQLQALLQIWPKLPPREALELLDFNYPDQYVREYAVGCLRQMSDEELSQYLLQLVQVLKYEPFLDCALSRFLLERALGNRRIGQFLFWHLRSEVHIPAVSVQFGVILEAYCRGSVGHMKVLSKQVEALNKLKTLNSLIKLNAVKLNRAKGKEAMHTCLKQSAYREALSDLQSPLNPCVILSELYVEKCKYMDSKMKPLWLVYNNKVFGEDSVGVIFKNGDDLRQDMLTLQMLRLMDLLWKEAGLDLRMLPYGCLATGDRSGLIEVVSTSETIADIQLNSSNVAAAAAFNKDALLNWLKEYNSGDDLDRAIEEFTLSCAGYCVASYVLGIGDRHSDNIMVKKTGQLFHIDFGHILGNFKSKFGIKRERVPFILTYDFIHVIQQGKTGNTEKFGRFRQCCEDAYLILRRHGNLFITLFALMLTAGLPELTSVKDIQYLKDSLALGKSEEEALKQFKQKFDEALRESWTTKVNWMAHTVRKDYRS
Chain of PI3K β (P27986 whole entry partner): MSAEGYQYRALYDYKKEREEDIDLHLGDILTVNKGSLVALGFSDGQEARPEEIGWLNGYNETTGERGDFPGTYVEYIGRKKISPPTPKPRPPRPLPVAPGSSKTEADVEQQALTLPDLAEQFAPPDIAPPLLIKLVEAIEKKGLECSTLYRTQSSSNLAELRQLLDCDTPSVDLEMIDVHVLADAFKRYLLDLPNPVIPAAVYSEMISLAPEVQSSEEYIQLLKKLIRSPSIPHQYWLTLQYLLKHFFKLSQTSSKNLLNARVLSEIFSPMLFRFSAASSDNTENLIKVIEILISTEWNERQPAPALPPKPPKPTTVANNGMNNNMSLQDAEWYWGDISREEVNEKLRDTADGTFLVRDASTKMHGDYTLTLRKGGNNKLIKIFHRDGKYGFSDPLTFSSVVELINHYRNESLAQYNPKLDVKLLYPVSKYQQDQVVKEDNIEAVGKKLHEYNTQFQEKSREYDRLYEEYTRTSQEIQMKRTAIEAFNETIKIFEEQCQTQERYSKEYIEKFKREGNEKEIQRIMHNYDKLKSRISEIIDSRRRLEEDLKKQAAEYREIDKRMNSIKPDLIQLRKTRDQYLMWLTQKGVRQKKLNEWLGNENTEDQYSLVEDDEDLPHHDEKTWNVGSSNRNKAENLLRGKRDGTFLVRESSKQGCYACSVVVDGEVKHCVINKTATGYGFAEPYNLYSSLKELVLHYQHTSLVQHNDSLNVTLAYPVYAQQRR
Procedure: as §1

Chain of PI3K α (P42336 whole entry): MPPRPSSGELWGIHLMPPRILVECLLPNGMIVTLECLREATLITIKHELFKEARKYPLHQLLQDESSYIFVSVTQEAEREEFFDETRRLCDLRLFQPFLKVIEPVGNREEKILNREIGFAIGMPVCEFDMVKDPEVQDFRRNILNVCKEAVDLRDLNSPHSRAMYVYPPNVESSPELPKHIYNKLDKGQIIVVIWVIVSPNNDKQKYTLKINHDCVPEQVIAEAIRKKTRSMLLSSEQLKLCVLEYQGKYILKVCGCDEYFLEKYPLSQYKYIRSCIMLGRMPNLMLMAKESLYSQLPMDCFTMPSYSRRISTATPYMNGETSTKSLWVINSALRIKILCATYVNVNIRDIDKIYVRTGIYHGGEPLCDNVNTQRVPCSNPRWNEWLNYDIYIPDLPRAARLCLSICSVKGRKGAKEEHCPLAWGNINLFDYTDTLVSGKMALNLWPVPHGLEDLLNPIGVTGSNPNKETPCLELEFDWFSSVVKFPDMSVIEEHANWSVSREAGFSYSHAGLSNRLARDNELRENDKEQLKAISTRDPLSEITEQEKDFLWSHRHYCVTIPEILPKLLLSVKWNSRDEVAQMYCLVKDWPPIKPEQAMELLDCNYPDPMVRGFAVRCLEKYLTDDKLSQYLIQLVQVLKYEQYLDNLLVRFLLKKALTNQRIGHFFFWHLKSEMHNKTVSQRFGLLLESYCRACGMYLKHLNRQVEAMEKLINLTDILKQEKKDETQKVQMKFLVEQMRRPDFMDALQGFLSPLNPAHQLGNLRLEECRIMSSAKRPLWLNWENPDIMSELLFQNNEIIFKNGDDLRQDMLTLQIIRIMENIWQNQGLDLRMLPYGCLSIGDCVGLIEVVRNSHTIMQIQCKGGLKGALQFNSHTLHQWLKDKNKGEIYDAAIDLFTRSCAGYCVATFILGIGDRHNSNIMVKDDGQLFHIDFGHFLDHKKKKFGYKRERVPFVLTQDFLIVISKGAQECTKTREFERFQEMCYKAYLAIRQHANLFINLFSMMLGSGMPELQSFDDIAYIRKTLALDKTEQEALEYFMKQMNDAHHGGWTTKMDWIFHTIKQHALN
Chain of PI3K α (P27986 whole entry partner): as the sequence (P27986 whole entry partner) above
Chain of PI3K γ (P48736 whole entry): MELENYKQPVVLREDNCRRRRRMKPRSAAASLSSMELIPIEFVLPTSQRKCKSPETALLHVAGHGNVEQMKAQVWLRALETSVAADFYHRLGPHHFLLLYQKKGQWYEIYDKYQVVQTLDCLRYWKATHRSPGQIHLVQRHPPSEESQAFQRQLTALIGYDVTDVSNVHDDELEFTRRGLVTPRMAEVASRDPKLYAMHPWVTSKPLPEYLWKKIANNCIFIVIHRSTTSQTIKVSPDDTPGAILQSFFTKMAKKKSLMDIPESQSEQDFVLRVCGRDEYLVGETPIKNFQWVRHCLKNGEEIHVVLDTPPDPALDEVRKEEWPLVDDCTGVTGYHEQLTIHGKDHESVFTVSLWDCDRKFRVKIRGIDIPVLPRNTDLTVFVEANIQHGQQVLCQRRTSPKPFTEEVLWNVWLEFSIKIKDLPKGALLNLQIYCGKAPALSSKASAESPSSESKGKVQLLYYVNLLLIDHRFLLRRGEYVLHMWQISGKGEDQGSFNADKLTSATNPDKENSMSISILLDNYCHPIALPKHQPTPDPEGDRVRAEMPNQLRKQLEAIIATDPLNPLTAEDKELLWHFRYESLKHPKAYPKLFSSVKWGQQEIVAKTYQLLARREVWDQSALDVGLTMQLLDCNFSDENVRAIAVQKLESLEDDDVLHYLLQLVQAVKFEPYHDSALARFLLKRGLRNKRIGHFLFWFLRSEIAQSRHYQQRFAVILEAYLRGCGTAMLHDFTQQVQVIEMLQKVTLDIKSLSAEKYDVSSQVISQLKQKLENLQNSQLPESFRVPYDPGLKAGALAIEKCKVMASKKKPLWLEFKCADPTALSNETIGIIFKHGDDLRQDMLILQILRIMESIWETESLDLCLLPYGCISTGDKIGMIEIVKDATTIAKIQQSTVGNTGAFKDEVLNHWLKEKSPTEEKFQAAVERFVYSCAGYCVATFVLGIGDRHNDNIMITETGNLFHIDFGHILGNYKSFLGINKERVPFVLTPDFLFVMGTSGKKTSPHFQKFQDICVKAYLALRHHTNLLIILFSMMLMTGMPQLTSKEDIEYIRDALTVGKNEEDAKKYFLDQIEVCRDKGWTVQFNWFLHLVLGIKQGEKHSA
Chain of PI3K δ (O00329 whole entry): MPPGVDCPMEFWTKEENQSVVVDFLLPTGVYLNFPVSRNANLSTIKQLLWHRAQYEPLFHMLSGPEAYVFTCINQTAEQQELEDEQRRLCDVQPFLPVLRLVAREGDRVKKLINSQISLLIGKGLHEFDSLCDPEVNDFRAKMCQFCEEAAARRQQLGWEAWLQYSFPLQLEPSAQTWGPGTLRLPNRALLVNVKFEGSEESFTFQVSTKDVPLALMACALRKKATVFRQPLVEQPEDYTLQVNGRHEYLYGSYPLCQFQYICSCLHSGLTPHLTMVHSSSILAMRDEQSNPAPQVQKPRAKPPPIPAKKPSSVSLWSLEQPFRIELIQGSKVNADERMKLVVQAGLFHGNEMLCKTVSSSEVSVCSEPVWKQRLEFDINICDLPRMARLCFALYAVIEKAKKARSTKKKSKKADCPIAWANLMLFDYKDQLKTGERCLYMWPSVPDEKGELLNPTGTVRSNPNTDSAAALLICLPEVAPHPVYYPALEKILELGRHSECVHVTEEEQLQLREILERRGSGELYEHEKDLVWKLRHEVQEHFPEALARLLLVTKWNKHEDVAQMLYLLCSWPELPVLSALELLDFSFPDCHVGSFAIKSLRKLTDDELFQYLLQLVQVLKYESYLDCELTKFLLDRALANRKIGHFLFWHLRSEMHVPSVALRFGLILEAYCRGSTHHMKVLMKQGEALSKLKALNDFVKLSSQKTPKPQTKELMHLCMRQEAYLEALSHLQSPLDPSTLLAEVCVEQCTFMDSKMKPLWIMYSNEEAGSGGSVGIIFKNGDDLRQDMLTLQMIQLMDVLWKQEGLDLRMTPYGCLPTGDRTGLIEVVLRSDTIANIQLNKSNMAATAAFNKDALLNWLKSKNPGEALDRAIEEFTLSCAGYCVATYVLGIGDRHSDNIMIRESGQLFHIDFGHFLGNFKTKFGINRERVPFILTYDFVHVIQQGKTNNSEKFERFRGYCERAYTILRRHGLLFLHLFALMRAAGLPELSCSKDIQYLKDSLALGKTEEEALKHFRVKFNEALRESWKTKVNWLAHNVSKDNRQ
Chain of PI3K δ (P27986 whole entry partner): as the sequence (P27986 whole entry partner) above

SMILES | IC50 (PI3K α) | IC50 (PI3K δ) | IC50 (PI3K γ) | IC50 (PI3K β)
Nc1nc2ccc(-c3ccc4ncc(N5CCOCC5)nc4c3)cc2s1 | < 0.1 µM | > 10 µM | < 1 µM | > 10 µM
CN1CCN(c2cnc3ccc(-c4ccc5nc(N)sc5c4)cc3n2)CC1 | < 0.1 µM | > 10 µM | < 10 µM | < 0.1 µM
Nc1nc2cc(-c3ccc4ncc(N5CCOCC5)nc4c3)ccc2s1 | < 0.1 µM | > 10 µM | < 1 µM | < 1 µM
Nc1nc2ccc(-c3ccc4ncc(N5CCOCC5)nc4c3)cc2o1 | < 0.1 µM | > 10 µM | < 1 µM | < 1 µM
CN1CCN(c2cnc3ccc(-c4ccc5nc(N)oc5c4)cc3n2)CC1 | < 1 µM | > 10 µM | < 10 µM | < 0.1 µM
CNC(=O)CN1CCN(c2cnc3ccc(-c4ccc5oc(N)nc5c4)cc3n2)CC1 | < 0.1 µM | < 10 µM | > 10 µM | < 1 µM
Nc1nc2cc(-c3ccc4ncc(N5CCN(C(=O)[C@@H]6CCCN6)CC5)nc4c3)ccc2o1 | < 0.1 µM | < 0.1 µM | < 0.1 µM | < 0.1 µM
Nc1nc2cc(-c3cn4c(C(=O)N5CCOCC5)cnc4cn3)ccc2o1 | > 10 µM | > 10 µM | > 10 µM | > 10 µM
CN1CCN(C(=O)c2cnc3cnc(-c4ccc5oc(N)nc5c4)cn23)CC1 | < 10 µM | > 10 µM | > 10 µM | > 10 µM
Nc1nc2ccc(-c3ccc4ncc(C(=O)N5CCOCC5)n4c3)cc2o1 | < 1 µM | > 10 µM | < 1 µM | < 1 µM
Nc1nc2ccc(-c3ccc4ncc(C(=O)N5CCOCC5)n4c3)cc2s1 | < 1 µM | < 10 µM | < 1 µM | > 10 µM
Nc1nc2cc(-c3ccc4ncc(C(=O)N5CCOCC5)n4c3)ccc2s1 | < 1 µM | > 10 µM | < 1 µM | < 10 µM
CN1CCN(c2cnc3ccc(-c4ccc5sc(N)nc5c4)cc3n2)CC1 | < 1 µM | > 10 µM | < 10 µM | < 0.1 µM
Nc1nc2cc(-c3ccc4ncc(N[C@H]5CC[C@H](O)CC5)nc4c3)ccc2o1 | < 0.1 µM | < 0.1 µM | < 0.1 µM | < 10 µM
CC(=O)Nc1nc2ccc(-c3nc(N4CCOCC4)c4sc(CN5CCN(S(C)(=O)=O)CC5)cc4n3)cc2s1 | > 10 µM | > 10 µM | > 10 µM | > 10 µM
CC1CN(c2cnc3ccc(-c4ccc5oc(N)nc5c4)cc3n2)CC(C)N1 (centres unmarked) | < 1 µM | < 1 µM | < 1 µM | < 1 µM
C[C@@H]1CN(c2cnc3ccc(-c4ccc5oc(N)nc5c4)cc3n2)C[C@H](C)O1 | < 1 µM | > 10 µM | < 10 µM | > 10 µM
CC(N)C(=O)N1CCN(c2cnc3ccc(-c4ccc5oc(N)nc5c4)cc3n2)CC1 (centres unmarked) | < 0.1 µM | < 1 µM | < 10 µM | < 1 µM
CN1CCCN(c2cnc3ccc(-c4ccc5oc(N)nc5c4)cc3n2)CC1 | < 1 µM | > 10 µM | < 10 µM | < 1 µM
CN1CC(C(=O)N2CCC(Nc3ncnc4ccc(-c5ccc6oc(N)nc6c5)cc34)CC2)C1 | < 0.1 µM | < 0.1 µM | < 1 µM | < 1 µM
CN1CCCN(C(=O)c2cnc3ccc(-c4ccc5oc(N)nc5c4)cn23)CC1 | < 1 µM | > 10 µM | > 10 µM | < 10 µM
CCN1CCN(C(=O)c2cnc3ccc(-c4ccc5oc(N)nc5c4)cn23)CC1 | < 1 µM | > 10 µM | < 10 µM | > 10 µM
CC1CN(C(=O)c2cnc3ccc(-c4ccc5oc(N)nc5c4)cn23)CC(C)N1 (centres unmarked) | < 10 µM | > 10 µM | > 10 µM | > 10 µM
CN1CCN(C(=O)c2cnc3ccc(-c4ccc5sc(N)nc5c4)cn23)CC1 | < 1 µM | > 10 µM | > 10 µM | < 10 µM
CN1CCN(C(=O)c2cnc3ccc(-c4ccc5nc(N)oc5c4)cn23)CC1 | < 1 µM | > 10 µM | > 10 µM | < 10 µM
CN1CCN(C(=O)c2cnc3ccc(-c4ccc5nc(N)sc5c4)cn23)CC1 | < 10 µM | > 10 µM | > 10 µM | < 10 µM
CC(=O)NC1CCN(C(=O)c2cnc3ccc(-c4ccc5oc(N)nc5c4)cn23)CC1 | < 1 µM | < 10 µM | < 10 µM | < 10 µM
Nc1nc2cc(-c3ccc4ncc(C(=O)N5CCN(CCO)CC5)n4c3)ccc2o1 | < 0.1 µM | > 10 µM | < 10 µM | > 10 µM
CC1CN(c2cnc3ccc(-c4ccc5oc(N)nc5c4)cc3n2)CCN1 (centres unmarked) | < 0.1 µM | < 10 µM | < 1 µM | < 0.1 µM
